Some test systems named below: A498; HOP-62; 786-0; NCI-H226; OVCAR-5; RPMI-8226; SN12C; A549; TK-10; OVCAR-4; NCI-H460; ACHN; UACC-257; DU-145; OVCAR-8; CCRF-CEM; HOP-92; OVCAR-3; NCI-H23; RXF 393.
Common to all, as to assay: DTP human tumour cell line panel, 48 h

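Step 1: Grow cells in 96-well plates. Step 2: Expose to compound for 48 hours at 5 concentrations. Step 3: Interpolate endpoints linearly; if unreached, use highest concentration. GI50 is the concentration that inhibits growth by half.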 Activity calls are given as the source filed them. Cut-off read from the data, not from the text of the source: active = GI50 up to about 1.1 µM and inactive = higher.

One may read the GI50 as the concentration giving 50% growth inhibition.

With `COc1ccccc1/C=C/c1ccnc2ccccc12`, the GI50 was 15.4 µM (inactive) in the assay with A498; 16.1 µM (inactive) in the assay with HOP-62; 14.3 µM (inactive) with 786-0; 15.8 µM (inactive) with NCI-H226; 17.3 µM (inactive) in the assay on OVCAR-5; 8.49 µM (inactive) in the assay with RPMI-8226. Further, the GI50 in the assay with SN12C was 18.1 µM (inactive); in the assay on A549, 14.5 µM (inactive); in the assay with TK-10, 16.8 µM (inactive); with OVCAR-4, 12.8 µM (inactive); in the assay on NCI-H460, 15.5 µM (inactive); in the assay with ACHN, 16.4 µM (inactive). Besides, the GI50 in the assay on UACC-257 was 16 µM (inactive); in the assay on DU-145, 16.4 µM (inactive); with OVCAR-8, 15.4 µM (inactive); in the assay with CCRF-CEM, 14.2 µM (inactive); in the assay with HOP-92, 12.8 µM (inactive); in the assay on OVCAR-3, 13.8 µM (inactive). Moreover, in the assay on NCI-H23, the GI50 was 13.6 µM (inactive).

Regarding `CCn1c(=O)c2c3ccc(OC)cc3[nH]c2c2ccc(OC)cc21`, the GI50 in the assay with A498 was 67.6 µM (inactive); in the assay with HOP-62 it was 37.5 µM (inactive); with 786-0 it was 0.0426 µM (active); in the assay with NCI-H226, > 100 µM (inactive); in the assay on OVCAR-5 it was > 100 µM (inactive); in the assay with SN12C, > 100 µM (inactive). Also, the GI50 is 59.7 µM (inactive) with A549; > 100 µM (inactive) in the assay on TK-10; 54.1 µM (inactive) in the assay with OVCAR-4; 29.3 µM (inactive) in the assay on RXF 393; 55.5 µM (inactive) in the assay on ACHN; 71.3 µM (inactive) in the assay on UACC-257. Moreover, the GI50 is 43.9 µM (inactive) in the assay on DU-145; 73.3 µM (inactive) in the assay on OVCAR-8; 29.2 µM (inactive) in the assay with CCRF-CEM; > 100 µM (inactive) in the assay with HOP-92; 37.5 µM (inactive) with OVCAR-3; > 100 µM (inactive) in the assay with NCI-H23.

For `O=C(O)CN1CCN2CCCCCN(CC1)CCN(CC(=O)O)CC2`, the GI50 in the assay with A498, in the assay on HOP-62, in the assay on 786-0, with NCI-H226, in the assay on OVCAR-5 and in the assay with RPMI-8226 was > 100 µM (inactive) throughout. Also, the GI50 was > 100 µM (inactive) in the assay with SN12C; > 100 µM (inactive) in the assay with A549; > 100 µM (inactive) with TK-10; > 100 µM (inactive) with OVCAR-4; 91.4 µM (inactive) in the assay with NCI-H460; > 100 µM (inactive) in the assay on ACHN. Moreover, the GI50 in the assay on UACC-257, in the assay on DU-145, in the assay with OVCAR-8, in the assay with CCRF-CEM, in the assay with HOP-92 and with OVCAR-3 was > 100 µM (inactive) throughout.

Regarding `Cc1ccc(Nc2nc(=O)c3c4ccccc4n(C(=O)OC(C)(C)C)c3s2)cc1`, the GI50 is 39.1 µM (inactive) in the assay with A498; 27.9 µM (inactive) in the assay on HOP-62; 15.3 µM (inactive) with 786-0; 19.7 µM (inactive) with OVCAR-5; 17.8 µM (inactive) with RPMI-8226; 28.8 µM (inactive) in the assay with A549. Further, the GI50 is 37.8 µM (inactive) in the assay on TK-10; 37.9 µM (inactive) in the assay on OVCAR-4; 15.7 µM (inactive) with NCI-H460; 35.5 µM (inactive) with ACHN; 51.1 µM (inactive) with UACC-257; 33.7 µM (inactive) in the assay with DU-145. Moreover, the GI50 with OVCAR-8 was 39.7 µM (inactive); in the assay on CCRF-CEM it was 30.3 µM (inactive); in the assay with HOP-92 it was 23.1 µM (inactive); with OVCAR-3 it was 23.1 µM (inactive); with NCI-H23, 23.1 µM (inactive).

On to `CC(C)=CCC/C(C)=C/CC/C(C)=C/CC/C(C=O)=C/CC/C(C)=C\CC/C(C)=C/CC/C(C)=C/CC/C(C)=C/CC1=CC(=O)C=CC1=O`, for which the GI50 in the assay on A498 was > 100 µM (inactive); with HOP-62, > 100 µM (inactive); in the assay on 786-0, 67 µM (inactive); in the assay with OVCAR-5 it was > 100 µM (inactive); in the assay with RPMI-8226, 37.4 µM (inactive); in the assay with SN12C it was > 100 µM (inactive). For the same compound, the GI50 was > 100 µM (inactive) in the assay on A549; > 100 µM (inactive) in the assay on TK-10; > 100 µM (inactive) with OVCAR-4; > 100 µM (inactive) in the assay with NCI-H460; > 100 µM (inactive) in the assay with ACHN; 48 µM (inactive) with UACC-257. Also, the GI50 with DU-145 is > 100 µM (inactive); in the assay on OVCAR-8, 46.5 µM (inactive); with CCRF-CEM, 72.8 µM (inactive); in the assay with HOP-92 it was > 100 µM (inactive); in the assay on OVCAR-3 it was 54.2 µM (inactive); in the assay on NCI-H23, 22.9 µM (inactive).

As to `O=C(c1ccco1)N(C(=S)OC12CC3CC(CC(C3)C1)C2)c1ccccc1`, the GI50 is 23.3 µM (inactive) in the assay on A498; 28.2 µM (inactive) with HOP-62; 31.2 µM (inactive) in the assay with 786-0; 27.2 µM (inactive) in the assay on NCI-H226; 39.7 µM (inactive) in the assay on OVCAR-5; 27.9 µM (inactive) in the assay on SN12C. The GI50 in the assay on A549 was 32.2 µM (inactive); with TK-10, 42.3 µM (inactive); in the assay on OVCAR-4, 36.1 µM (inactive); with RXF 393, 13.7 µM (inactive); in the assay with NCI-H460 it was 30.8 µM (inactive); in the assay on ACHN, 27.1 µM (inactive). Also, the GI50 was 30.9 µM (inactive) with UACC-257; 52.8 µM (inactive) in the assay with DU-145; 31.3 µM (inactive) with OVCAR-8; 16.9 µM (inactive) in the assay with CCRF-CEM; 19.5 µM (inactive) in the assay with HOP-92; 28.1 µM (inactive) in the assay on OVCAR-3. Further, the GI50 in the assay with NCI-H23 was 27.8 µM (inactive).

For the compound `CC1(C)CC(=O)C(CC2C(=O)c3ccccc3C2=O)C(=O)C1C(=O)C(=O)Nc1cccc2ccc(O)cc12` (configuration not stated), the GI50 was 20.8 µM (inactive) in the assay with A498; > 100 µM (inactive) with 786-0; 29 µM (inactive) in the assay with NCI-H226; > 100 µM (inactive) in the assay with OVCAR-5; 66.5 µM (inactive) with RPMI-8226; > 100 µM (inactive) in the assay on SN12C. Also, the GI50 with A549 was > 100 µM (inactive); in the assay on TK-10 it was 54 µM (inactive); in the assay on OVCAR-4, 88.7 µM (inactive); in the assay with NCI-H460, > 100 µM (inactive); with ACHN it was > 100 µM (inactive); in the assay on UACC-257, > 100 µM (inactive). Also, the GI50 in the assay on DU-145 is > 100 µM (inactive); in the assay with OVCAR-8 it was > 100 µM (inactive); with CCRF-CEM, < 0.01 µM (active); in the assay with HOP-92, 70.3 µM (inactive); in the assay on OVCAR-3, 48.9 µM (inactive); with NCI-H23, 67.1 µM (inactive).

With `Cc1ccc2c3c(cnc2n1)C(=O)OCCN3C`, the GI50 in the assay on A498, in the assay on HOP-62, in the assay on 786-0, with OVCAR-5, with SN12C and with A549 was > 100 µM (inactive) each time. For the same compound, the GI50 in the assay with TK-10, in the assay with OVCAR-4, in the assay on RXF 393, in the assay on NCI-H460, with ACHN and with UACC-257 was > 100 µM (inactive) in each case. In addition, the GI50 in the assay on DU-145, with OVCAR-8, with CCRF-CEM, in the assay with HOP-92, with OVCAR-3 and with NCI-H23 was > 100 µM (inactive) each time.

Regarding `O=C(O)C/C=C/CC(=O)O`, the GI50 in the assay on A498, with HOP-62, with 786-0, in the assay on NCI-H226, in the assay with OVCAR-5 and in the assay on RPMI-8226 was > 100 µM (inactive) throughout. For the same compound, the GI50 with SN12C was 25.7 µM (inactive); in the assay with A549, > 100 µM (inactive); in the assay with TK-10, > 100 µM (inactive); in the assay with OVCAR-4 it was > 100 µM (inactive); in the assay on RXF 393 it was > 100 µM (inactive); with NCI-H460 it was > 100 µM (inactive). The GI50 in the assay with ACHN, in the assay with UACC-257, in the assay on DU-145, in the assay with OVCAR-8, in the assay with CCRF-CEM and with OVCAR-3 was > 100 µM (inactive) in each case. Further, the GI50 in the assay with NCI-H23 is > 100 µM (inactive).

For the compound `COc1c(O)c(OC)c2oc(-c3ccc(O)c(O)c3)c(OC)c(=O)c2c1O`, the GI50 in the assay with A498 was 31.6 µM (inactive); with HOP-62, 6.98 µM (inactive); in the assay on 786-0 it was 15 µM (inactive); with NCI-H226, 27.4 µM (inactive); in the assay on OVCAR-5 it was 38.8 µM (inactive); with RPMI-8226 it was 31.8 µM (inactive). Moreover, the GI50 was 56.9 µM (inactive) in the assay on SN12C; 35.6 µM (inactive) with A549; 30.5 µM (inactive) in the assay on TK-10; 55 µM (inactive) with OVCAR-4; 35.9 µM (inactive) with NCI-H460; 31.4 µM (inactive) in the assay with ACHN. Besides, the GI50 was 24 µM (inactive) in the assay with UACC-257; 24.2 µM (inactive) in the assay on DU-145; 32.1 µM (inactive) in the assay on OVCAR-8; 23.9 µM (inactive) in the assay on CCRF-CEM; 30.5 µM (inactive) in the assay on HOP-92; 2.85 µM (inactive) in the assay with OVCAR-3. For the same compound, the GI50 with NCI-H23 is 32.7 µM (inactive).

With `C=C1CC(Cn2ccc(=O)[nH]c2=O)(c2ccc(-c3ccccc3)cc2)OC1=O` (configuration not stated), the GI50 was 2.86 µM (inactive) in the assay with A498; 15.2 µM (inactive) in the assay on HOP-62; 0.619 µM (active) with 786-0; 4.6 µM (inactive) with NCI-H226; 10 µM (inactive) with OVCAR-5; 0.234 µM (active) with RPMI-8226. The GI50 in the assay on SN12C is 4.6 µM (inactive); with A549 it was 11.1 µM (inactive); in the assay with TK-10, 1.03 µM (active); with OVCAR-4, 2.1 µM (inactive); in the assay with NCI-H460, 11.2 µM (inactive); in the assay on ACHN, 1.78 µM (inactive). For the same compound, the GI50 with UACC-257 was 1.65 µM (inactive); in the assay with DU-145, 1.05 µM (active); in the assay with OVCAR-8, 2.62 µM (inactive); in the assay on CCRF-CEM it was 0.305 µM (active); in the assay with HOP-92, 1.2 µM (inactive); with OVCAR-3, 1.98 µM (inactive). Further, the GI50 in the assay with NCI-H23 is 1.98 µM (inactive).

These data come from ChEMBL document CHEMBL1201862, “PubChem BioAssay data set” (2004).
